Source: the NIST ThermoML archive (doi:10.1007/s10765-012-1159-3)
± gives the expanded uncertainty stated by the source.

Settings: 101.33 kPa, Liquid; for kinematic viscosity: Capillary tube (Ostwald / Ubbelohde) method; for mass density: Vibrating tube method

| Structure (SMILES) | kinematic viscosity (293.15 K) | mass density (293.15 K) | kinematic viscosity (298.15 K) | mass density (298.15 K) |
| --- | --- | --- | --- | --- |
| C1CCCCC1 [cyclohexane] | 1.256e-06 ± 1.1e-08 m2/s | 778.7 ± 0.6 kg/m3 | 1.154e-06 ± 1e-08 m2/s | 773.9 ± 0.6 kg/m3 |
| CCc1ccccc1 [ethylbenzene] | 7.767e-07 ± 7.4e-09 m2/s | 867.1 ± 0.6 kg/m3 | 7.323e-07 ± 7.2e-09 m2/s | 862.7 ± 0.6 kg/m3 |
| CCCCCC [hexane] | 4.7e-07 ± 5.6e-09 m2/s | 659.4 ± 0.6 kg/m3 | 4.49e-07 ± 5.5e-09 m2/s | 654.9 ± 0.6 kg/m3 |
| CCCCCCCC [octane] | 7.734e-07 ± 7.4e-09 m2/s | 702.5 ± 0.6 kg/m3 | 7.313e-07 ± 7.1e-09 m2/s | 698.5 ± 0.6 kg/m3 |
| Cc1ccccc1 [toluene] | 6.8e-07 ± 6.8e-09 m2/s | 866.7 ± 0.6 kg/m3 | 6.41e-07 ± 6.6e-09 m2/s | 862 ± 0.6 kg/m3 |
